Data published in the OPERA property sets (Mansouri et al. 2018).
Converted amounts (≈) assume the structure as drawn.

Settings: 20 °C

SMILES | solubility [mM]
N=C(NCCCCCCNC(=N)NC(=N)Nc1ccc(Cl)cc1)NC(=N)Nc1ccc(Cl)cc1 | 1.58 (≈ 800 µg/mL)
CC(O)(P(=O)(O)O)P(=O)(O)O | 3350 (≈ 690000 µg/mL)
Clc1ncnc2[nH]cnc12 | 32.4 (≈ 5000 µg/mL)
C[C@H](O)[C@@H](O)c1cnc2[nH]c(N)nc(=O)c2n1 | 2.95 (≈ 700 µg/mL)
CC(=O)N(C)N(C(=O)C(=O)N(C)C)c1ccccc1 | 292 (≈ 76900 µg/mL)

Same assay, conditions: 22 °C

SMILES | solubility [mM]
O=C(OCCOCCO)c1ccccc1Nc1cccc(C(F)(F)F)c1 | 0.00433 (≈ 1.6 µg/mL)
Nc1nc(N)nc(-c2ccccc2)n1 | 3.2 (≈ 600 µg/mL)

Same assay, conditions: 23 °C

SMILES | solubility [mM]
COc1cc([C@@H]2c3cc4c(c(O)c3C[C@H]3COC(=O)[C@@H]32)OCO4)cc(OC)c1OC | 0.0314 (≈ 13 µg/mL)

Same assay, conditions: 25 °C

SMILES | solubility [mM]
CO[C@H]1[C@H](O)[C@H](O[C@H]2CC[C@@]3(C=O)[C@H](CC[C@@H]4[C@@H]3CC[C@]3(C)[C@@H](C5=CC(=O)OC5)CC[C@]43O)C2)O[C@@H](C)[C@@H]1O | 0.729 (≈ 400 µg/mL)
C/C=C\C(=O)OC1C[C@H]2O[C@@H]3C=C(C)C(=O)C[C@]3(C)[C@]1(C)C21CO1 (stereo partly specified) | 1.2 (≈ 400 µg/mL)
CC(=O)Nc1c(I)c(C(=O)N[C@H]2C(O)O[C@H](CO)[C@@H](O)[C@@H]2O)c(I)c(N(C)C(C)=O)c1I (stereo partly specified) | 634 (≈ 500000 µg/mL)
Oc1c(Cl)cc(Cl)cc1Sc1cc(Cl)cc(Cl)c1O | 0.0112 (≈ 4 µg/mL)
OCc1cc(Br)ccc1O | 621 (≈ 126000 µg/mL)
CO[C@H]1O[C@H](CNC(=O)N(CCCl)N=O)[C@@H](O)[C@H](O)[C@H]1O | 27.5 (≈ 9000 µg/mL)
CCC(O)(COC(N)=O)c1ccccc1 (stereo unspecified) | 119 (≈ 25000 µg/mL)
CCCOC(=O)c1cc(O)c(O)c(O)c1 | 16.5 (≈ 3500 µg/mL)
Nc1ncnc2c1ncn2[C@]1(CO)O[C@H](CO)[C@@H](O)[C@H]1O | 26.9 (≈ 8000 µg/mL)
Cc1cc(O)c(C(C)C)cc1Cl | 5.42 (≈ 1000 µg/mL)
O=C(OC(=O)c1ccccc1)c1ccccc1 | 0.0442 (≈ 10 µg/mL)
O=c1[nH]c(=O)n([C@H]2C[C@H](O)[C@@H](CO)O2)cc1I | 5.65 (≈ 2000 µg/mL)
O=C(C(=O)c1cc([N+](=O)[O-])ccc1O)c1cc([N+](=O)[O-])ccc1O | 0.301 (≈ 100 µg/mL)
CN1C(=O)CCS(=O)(=O)C1c1ccc(Cl)cc1 (stereo unspecified) | 9.13 (≈ 2500 µg/mL)
CNC[C@H](O)[C@@H](O)[C@H](O)[C@H](O)CO | 3620 (≈ 707000 µg/mL)
O=C(O)[C@H](O)[C@@H](O)[C@H](O)[C@H](O)CO | 1610 (≈ 316000 µg/mL)
NC(=O)c1cnccn1 | 122 (≈ 15000 µg/mL)
CC1(C)CC(=O)CC(=O)C1 | 29.7 (≈ 4160 µg/mL)
O=C(CCCN1CCC(O)(c2ccc(Cl)cc2)CC1)c1ccc(F)cc1 | 0.0372 (≈ 14 µg/mL)
NC(Cc1cc(Br)c(O)c(Br)c1)C(=O)O (stereo in doubt) | 11.8 (≈ 4000 µg/mL)
CC(=O)OC(C)(C)C | 71.7 (≈ 8330 µg/mL)
O=CNc1ccccc1 | 210 (≈ 25400 µg/mL)
C[C@@H]1C(=O)OC[C@H]2[C@@H]1CC[C@@H]2C | 11.9 (≈ 2000 µg/mL)

SMILES | solubility [mM]
C[C@](N)(Cc1ccc(O)c(O)c1)C(=O)O | 47.3 (≈ 10000 µg/mL)
C#CC1(OC(N)=O)CCCCC1 | 15 (≈ 2500 µg/mL)
C[C@H]1O[C@H](O[C@H]2CC[C@H](n3ccc(NC(=O)c4ccc(NC(=O)[C@@](C)(N)CO)cc4)nc3=O)O[C@@H]2C)[C@H](O)[C@@H](O)[C@@H]1N(C)C | 3.23 (≈ 2000 µg/mL)
CCCC(C)(COC(N)=O)COC(=O)NC(C)C (stereo unspecified) | 1.15 (≈ 300 µg/mL)
Cn1c([N+](=O)[O-])cnc1COC(N)=O | 14.3 (≈ 2870 µg/mL)
O=C1CN=C(c2ccccc2Cl)c2cc([N+](=O)[O-])ccc2N1 | 0.317 (≈ 100 µg/mL)
COc1cc([C@@H]2c3cc4c(cc3[C@H](O)[C@H]3COC(=O)[C@@H]23)OCO4)cc(OC)c1OC | 0.241 (≈ 100 µg/mL)
NC1(C(=O)O)CCCC1 | 387 (≈ 50000 µg/mL)
NC(=S)Nc1cccc2ccccc12 | 2.97 (≈ 600 µg/mL)
O=C(c1ccc(F)cc1)C1CCN(CCn2c(=O)[nH]c3ccccc3c2=O)CC1 | 0.0253 (≈ 10 µg/mL)
C=C(C)C(=O)C(=CC(=O)O)OC | 118 (≈ 20000 µg/mL)
O=[N+]([O-])c1ccc(C=NO)o1 | 6.41 (≈ 1000 µg/mL)
O=C1CCC(=O)N1Cl | 107 (≈ 14300 µg/mL)
NS(=O)(=O)c1cc2c(cc1C(F)(F)F)NC=NS2(=O)=O | 152 (≈ 50000 µg/mL)
O=C1C(Br)=CC(=NCl)C=C1Br | 0.196 (≈ 58.8 µg/mL)
O=C1OC(CN2CCOCC2)CN1N=Cc1ccc([N+](=O)[O-])o1 (stereo unspecified) | 2.31 (≈ 750 µg/mL)
S=P(N1CC1)(N1CC1)N1CC1 | 1000 (≈ 190000 µg/mL)
Cn1c(=O)c2c(ncn2CC(O)CO)n(C)c1=O (stereo unspecified) | 1310 (≈ 333000 µg/mL)
CN1CCN(C(c2ccccc2)c2ccccc2)CC1 | < 3.75
C=C(C)Cn1c(N)cc(=O)n(C)c1=O | 102 (≈ 20000 µg/mL)
CCCn1cnc2c1c(=O)n(CCCCC(C)=O)c(=O)n2C | 104 (≈ 32000 µg/mL)
NC(=O)c1cccnc1 | 4090 (≈ 500000 µg/mL)

Same assay, conditions: 26 °C

SMILES | solubility [mM]
O=C(O)CCSCCC(=O)O | 209 (≈ 37200 µg/mL)

Same assay, conditions: 27 °C

SMILES | solubility [mM]
NC(=S)NC(N)=S | 20 (≈ 2700 µg/mL)
O=C(O)/C=C\C(=O)Nc1ccccc1 | 5.23 (≈ 1000 µg/mL)

Same assay, conditions: 28 °C

SMILES | solubility [mM]
Nc1ccc(S(=O)(=O)c2cnc(N)s2)cc1 | 1.57 (≈ 400 µg/mL)

Same assay, conditions: 29 °C

SMILES | solubility [mM]
NC(Cc1n[nH]c2ccccc12)C(=O)O (stereo unspecified) | 39 (≈ 8000 µg/mL)

Same assay, conditions: 30 °C

SMILES | solubility [mM]
Nc1ccc(S(=O)(=O)NC(=O)c2ccccc2)cc1 | 1.12 (≈ 310 µg/mL)
COCCOc1c(OC)cc(Cc2cnc(N)nc2N)cc1OC | 7.93 (≈ 2650 µg/mL)

Same assay, conditions: pH 5.5

SMILES | solubility [mM]
Cc1cnc(NS(=O)(=O)c2ccc(N)cc2)nc1 | 1.51 (≈ 400 µg/mL)
